Experimental data from US20160177259A1, “[…]” (Evonik Degussa GmbH, priority 2014, published 2016).

System: Clostridium ljungdahlii
Experiment: Example 1 redone at shaking speed 100 min-1 (Example 1b)
Type: cell-based
Protocol: For the production, anaerobic carbonate buffer (adjusted with KOH 1.4 g/L) was used. The only addition to the buffer was L-cysteine HCl at different concentrations.
For identical autotrophic productions, 500 mL septum bottles were filled with 100 mL carbonate buffer and shaken at 150 min^−1 in an open shaking water bath shaker Innova 3100 by New Brunswick Scientific. The reactions were carried out at 37° C. with manual control of the pH. Once the pH dropped below 5.5, KOH was replenished from a stock solution of 140 g/L. In the present experiments the pH in both reactors were checked at the following points in time 50.3 h, 73.3 h and corrected by the addition of each 1.4 g/L KOH manually.
The reactors were inoculated with a synthesis gas mixture of 67% H2 and 33% CO2 and pressure of 0.8 bar applied. To replenish the depleted gas, the gas above the reactors was replaced once a day and again the pressure brought to 0.8 bars.
The reactor was started by seeding autotrophic grown cells at an OD of 0.2. The preculture was carried out continuously in a 1 L bottle with 500 mL complex medium. The complex medium consisting of 1 g/lNH4Cl, 0.1 g/l KCl, 0.2 g/l MgSO4 ×7 H2O, 0.8 g/l NaCl, 0.1 g/l KH2PO4, 20 mg/l CaCl2 ×2 H2O, 20 g/l MES, 1 g/l yeast extract, 0.4 g/L L-Cysteine-HC1, 20 mg/l nitrilotriacetic acid, 10 mg/l MnSO4×H2O, 8 mg/l (NH4)2Fe(SO4)2×6 H2O, 2 mg/l CoCl2×6 H2O, 2 mg/l ZnSO4 33 7 H2O, 0.2 mg/l CuCl 2 33 2 H2O, 0.2 mg/l Na2MoO4×2 H2O, 0.2 mg/l NiCl2×6 H2O, 0.2 mg/l Na2SeO4, 0.2 mg/l Na2WO4×2 H2O, 20 μg/l d-Biotin, 20 μg/l folic acid, 100 μg/l pyridoxine HCl, 50μg/l thiamine-HCl×H2O, 50 μg l of riboflavin, 50 μg/l nicotinic acid, 50 μg/l Ca-pantothenate, 1 μg/l vitamin B12, 50μg/l p-aminobenzoate, 50 μg/l lipoic acid. The culture was then gassed continuously with synthesis gas (67% H2, 33% CO2) at a flow rate of 3 l/h over a filter with pore size 10 microns. The cells were in late log phase growth at an OD of 0.37 and where anaerobically centrifuged (4500 rpm, 4300 g, 20° C., 10 min). The supernatant was discarded and the cell pellet resuspended in 10 ml carbonate buffer. The prepared cells were then used to inoculate the actual tests.
When sampling each 5 ml sample was removed for determination of OD600, pH and the product spectrum. The determination of the product concentration was performed using quantitative 1H-NMR spectroscopy. As an internal quantification standard sodium trimethylsilylpropionate was used (T(M)SP).
The example 1 above was redone with only a difference in the shaking speed on the septum bottles for autotrophic productions. The shaking speed used was 100 min^−1.
A reporting error in example 1 was noticed where the results of cysteine for reactor 1 and 2 were switched.

[1] = reactor 1, 0.1 g/L L-Cysteine-HCl, 100 min-1, 0.0 h
[2] = reactor 1, 0.1 g/L L-Cysteine-HCl, 100 min-1, 24.5 h
[3] = reactor 1, 0.1 g/L L-Cysteine-HCl, 100 min-1, 50.3 h
[4] = reactor 1, 0.1 g/L L-Cysteine-HCl, 100 min-1, 73.3 h
[5] = reactor 1, 0.1 g/L L-Cysteine-HCl, 100 min-1, 92.3 h
[6] = reactor 2, 0.4 g/L L-Cysteine-HCl, 100 min-1, 0.0 h
[7] = reactor 2, 0.4 g/L L-Cysteine-HCl, 100 min-1, 24.5 h
[8] = reactor 2, 0.4 g/L L-Cysteine-HCl, 100 min-1, 50.3 h
[9] = reactor 2, 0.4 g/L L-Cysteine-HCl, 100 min-1, 73.3 h
[10] = reactor 2, 0.4 g/L L-Cysteine-HCl, 100 min-1, 92.3 h

Q: For Cl.N[C@@H](CS)C(=O)O [L-Cysteine-HCl, L-cysteine hydrochloride], which “Acetate (NMR)” value [1] is on record?
A: 13 mg/L

Q: And the “Ethanol (NMR)” value [1]?
A: 6 mg/L

Q: And the OD600 [1]?
A: 0.25

Q: And the “Acetate (NMR)” value [2]?
A: 1418 mg/L

Q: And the “Ethanol (NMR)” value [2]?
A: 19 mg/L

Q: What about the OD600 [2] of the same compound?
A: 0.25

Q: And the Δp [2]?
A: 0.6 bar

Q: What about the “Acetate (NMR)” value [3] of the same compound?
A: 2556 mg/L

Q: What about the “Ethanol (NMR)” value [3] of the same compound?
A: 130 mg/L

Q: And the OD600 [3]?
A: 0.30

Q: What about the Δp [3] of the same compound?
A: 0.6 bar

Q: And the OD600 [4]?
A: 0.30

Q: And the Δp [4]?
A: 0.6 bar

Q: And the “Acetate (NMR)” value [5]?
A: 6960 mg/L

Q: And the “Ethanol (NMR)” value [5]?
A: 321 mg/L

Q: What about the OD600 [5] of the same compound?
A: 0.26

Q: And the Δp [5]?
A: 0.4 bar

Q: And the “Acetate (NMR)” value [6]?
A: 15 mg/L

Q: What about the “Ethanol (NMR)” value [6] of the same compound?
A: 8 mg/L

Q: And the OD600 [6]?
A: 0.24

Q: And the “Acetate (NMR)” value [7]?
A: 2331 mg/L

Q: What about the “Ethanol (NMR)” value [7] of the same compound?
A: 27 mg/L

Q: What about the OD600 [7] of the same compound?
A: 0.23

Q: And the Δp [7]?
A: 0.6 bar

Q: And the “Acetate (NMR)” value [8]?
A: 3197 mg/L

Q: What about the “Ethanol (NMR)” value [8] of the same compound?
A: 128 mg/L

Q: And the OD600 [8]?
A: 0.26

Q: What about the Δp [8] of the same compound?
A: 0.5 bar

Q: And the OD600 [9]?
A: 0.22

Q: What about the Δp [9] of the same compound?
A: 0.3 bar

Q: What about the “Acetate (NMR)” value [10] of the same compound?
A: 5067 mg/L

Q: What about the “Ethanol (NMR)” value [10] of the same compound?
A: 150 mg/L

Q: What about the OD600 [10] of the same compound?
A: 0.22

Q: And the Δp [10]?
A: 0.3 bar
